Reference: patent publication US10307383B2, “Cosmetic composition for preventing or ameliorating hypersensitive skin comprising cedrol or derivatives thereof, or pharmaceutically acceptable salts thereof” (University of Seoul Industry Cooperation Foundation, priority 2017, dated 2019)

Assays:
Assay type in all cases: in vivo, Balb/c mouse
[1] = test system: psoriasis induced mice (imiquimod); experiment: Cumulative score of PASI for ear thickness, keratosis and skin flair (development phase); conditions: 100 mg/kg oral, 7 days, IMQ applied
Method: (§1) To investigate the delayed effect of cedrol, cedryl acetate, and alpha-cedrene on the development of psoriasis, total 5 groups of mice were prepared (8 mice/group). First, the hair of the entire back of the 8-week-old male Balb/c mouse whose immune system was weakened was removed by using a hair clipper (Kimlaube Hair pen 325,327, Rikei, Korea). In the middle of the shaved back of the mouse, 2 mg of imiquimod (3M Health Care Limited, England) was applied in the area of 2 cm×1.5 cm and also 1,125 mg of imiquimod was applied on the right ear of the mouse every day once a day to induce psoriasis.
The mice prepared above were divided into the distilled water treated group (IMQ), the cedrol treated group (C), the cedryl acetate treated group (CA), and the alpha-cedrene treated group (CE). At this time, the mice were orally treated with distilled water at the concentration of 200 μl/mouse and cedrol or its derivatives at the concentration of 200 μl/mouse (100 mg/kg). The day when distilled water or the compound administration started was recorded as day 0 and the administration was performed once a day for a week, during which photo-recording was performed every day (FIGS. 2A˜2D). In the meantime, instead of applying imiquimod, 40 mg of vaseline was applied on the back of the control group (CONT) and 22.5 mg of vaseline was applied on the right ear of the control group. […]

[2] = Weight changes in the psoriasis induced mice (oral administration during imiquimod application); conditions: 100 mg/kg oral once a day during application of IMQ; increase
Method: as §1
The mice prepared above were divided into the distilled water treated group (IMQ), the cedrol treated group (C), the cedryl acetate treated group (CA), and the alpha-cedrene treated group (CE). […] The day when distilled water or the compound administration started was recorded as day 0 and the administration was performed once a day for a week, during which photo-recording was performed every day (FIGS. 2A˜2D). […]
To compare the weight changes in the psoriasis induced mice according to the oral administration of cedrol, cedryl acetate, and alpha-cedrene of Example <2-1>, the weight of each mouse was measured at the same time every day for a week.

[3] = test system: psoriasis induced mice (imiquimod); experiment: Cumulative score of PASI for ear thickness, keratosis and skin flair (recovery phase); conditions: 100 mg/kg oral after termination of imiquimod
Method: Imiquimod was applied to the psoriasis induced mice which had developed psoriasis for a week in Example <2-1>. The application was stopped 8 days after the application began. The groups CON and IMQ were treated with distilled water, the group C was treated with cedrol, the group CA was treated with cedryl acetate, the group CE was treated with alpha-cedrene alone at the concentration of 100 mg/kg in 200 μl, every day via oral-administration. Day 8 was the day the imiquimod application was stopped, since then the compounds were administered for 1 week once a day, during which photo-recording was performed (FIGS. 13A˜13D).
The psoriasis area severity index obtained in Examples <3-2> and <3-4> was accumulated to compare the psoriasis area severity index for ear thickness, keratosis and skin flair of the mouse groups respectively treated with cedrol, cedryl acetate, and alpha-cedrene via oral-administration.

weight change for 7 days [2] | SMILES | cumulative PASI (ear thickness, keratosis, skin flair) reduction effect, in words [1] | cumulative PASI (ear thickness, keratosis, skin flair) recovery effect, in words [3]
 | CC1=CC[C@@]23C[C@@H]1C(C)(C)[C@@H]2CC[C@H]3C [alpha-cedrene, Alpha-cedrene] | strongest reduction effect at a similar level | 
 | CC(=O)O[C@]1(C)CC[C@@]23C[C@@H]1C(C)(C)[C@@H]2CC[C@H]3C [cedryl acetate, Cedryl acetate] | strongest reduction effect at a similar level | 
0.025 g | C[C@@H]1CC[C@H]2C(C)(C)[C@H]3C[C@@]12CC[C@@]3(C)O [cedrol, Cedrol] |  | strongest recovery effect
